From ChEMBL document CHEMBL5634087, “Novel 5-aminopyrazoles endowed with anti-angiogenetic properties: Design, synthesis and biological evaluation” (Eur J Med Chem, 2023)
Blank lines part the entries; values can stand above or below the compound they belong to. Calls of active or inactive are those of the source. No cut-off for these calls is given here.

Tests used:
[1] = target: RAC-alpha serine/threonine-protein kinase (Homo sapiens) (UniProt P31749); test: Inhibition of AKT phosphorylation in serum starved VEGF stimulated HUVEC cells at 20 uM preincubated for 10 mins followed by VEGF addition and measured after 20 mins by Western blotting analysis relative to control; assay type: cell-based; conditions: time 30.0 min
Sequence of RAC-alpha serine/threonine-protein kinase (Homo sapiens) (P31749 whole entry): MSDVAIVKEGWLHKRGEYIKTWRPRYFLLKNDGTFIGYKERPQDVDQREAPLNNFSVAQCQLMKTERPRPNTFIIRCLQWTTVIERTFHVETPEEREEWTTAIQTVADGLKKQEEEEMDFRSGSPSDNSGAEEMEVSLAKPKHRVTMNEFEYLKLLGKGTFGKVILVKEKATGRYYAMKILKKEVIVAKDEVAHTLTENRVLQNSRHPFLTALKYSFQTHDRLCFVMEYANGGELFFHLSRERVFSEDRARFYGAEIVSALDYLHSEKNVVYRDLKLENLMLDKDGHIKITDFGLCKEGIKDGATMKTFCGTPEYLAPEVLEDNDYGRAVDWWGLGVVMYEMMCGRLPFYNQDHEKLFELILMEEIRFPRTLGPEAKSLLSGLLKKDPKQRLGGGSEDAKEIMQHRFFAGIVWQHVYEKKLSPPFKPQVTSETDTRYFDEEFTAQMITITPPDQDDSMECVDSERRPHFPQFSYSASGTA

HUVEC [2] = test: Antiangiogenic activity in confluent VEGF stimulated HUVEC cells assessed as inhibition of cell migration at 20 uM incubated for 24 to 48 hrs by Hoechst 33342 staining based wound healing assay; assay type: functional; conditions: Homo sapiens, time 24-48 hrs
HFF [3] = test: Antiangiogenic activity in confluent HFF cells assessed as relative migration rate at 1 uM incubated for 24 hrs by Hoechst 33342 staining based wound healing assay relative to control; assay type: functional, Homo sapiens
HFF [4] = test: Antiangiogenic activity in confluent HFF cells assessed as relative migration rate at 1 uM incubated for 48 hrs by Hoechst 33342 staining based wound healing assay relative to control; assay type: functional, Homo sapiens
SK-MEL-28 = test: Antiproliferative activity against human SK-MEL-28 cells assessed as growth rate at 10 uM incubated for 48 hrs by MTT assay relative to control; assay type: functional; conditions: read-out: Activity
SK-OV-3 = test: Antiproliferative activity against human SK-OV-3 cells assessed as growth rate at 10 uM incubated for 48 hrs by MTT assay relative to control; assay type: functional; conditions: read-out: Activity
MCF7 = test: Antiproliferative activity against human MCF7 cells assessed as growth rate at 10 uM incubated for 48 hrs by MTT assay relative to control; assay type: functional; conditions: read-out: Activity
A549 = test: Antiproliferative activity against human A549 cells assessed as growth rate at 10 uM incubated for 48 hrs by MTT assay relative to control; assay type: functional; conditions: read-out: Activity
SK-BR-3 = test: Antiproliferative activity against human SK-BR-3 cells assessed as growth rate at 10 uM incubated for 48 hrs by MTT assay relative to control; assay type: functional; conditions: read-out: Activity
HeLa = test: Antiproliferative activity against human HeLa cells assessed as growth rate at 10 uM incubated for 48 hrs by MTT assay relative to control; assay type: functional; conditions: read-out: Activity
HepG2 = test: Antiproliferative activity against human HepG2 cells assessed as growth rate at 10 uM incubated for 48 hrs by MTT assay relative to control; assay type: functional; conditions: read-out: Activity
MDA-MB-231 = test: Antiproliferative activity against human MDA-MB-231 cells assessed as growth rate at 10 uM incubated for 48 hrs by MTT assay relative to control; assay type: functional; conditions: read-out: Activity
[5] = Cytotoxicity against human GM06114 cells assessed as growth rate at 10 uM incubated for 48 hrs by MTT assay relative to control; assay type: toxicity, cell-based; conditions: gm06114, 48 h
[6] = target: RAC-alpha serine/threonine-protein kinase (Homo sapiens) (UniProt P31749); test: Inhibition of AKT phosphorylation in serum starved bFGF stimulated HFF cells at 20 uM preincubated for 10 mins followed by bFGF addition and measured after 20 mins by Western blotting analysis; assay type: cell-based; conditions: time 30.0 min
[7] = target: Mitogen-activated protein kinase; ERK1/ERK2 (Homo sapiens) (UniProt P27361+P28482); test: Inhibition of ERK1/2 phosphorylation in serum starved bFGF stimulated HFF cells assessed as residual phosphorylated ERK1/2 level at 20 uM preincubated for 10 mins followed by bFGF addition and measured after 20 mins by Western blotting analysis relative to control; assay type: cell-based; conditions: time 30.0 min
Sequence of Mitogen-activated protein kinase; ERK1/ERK2 (Homo sapiens) (P27361 whole entry, looked up): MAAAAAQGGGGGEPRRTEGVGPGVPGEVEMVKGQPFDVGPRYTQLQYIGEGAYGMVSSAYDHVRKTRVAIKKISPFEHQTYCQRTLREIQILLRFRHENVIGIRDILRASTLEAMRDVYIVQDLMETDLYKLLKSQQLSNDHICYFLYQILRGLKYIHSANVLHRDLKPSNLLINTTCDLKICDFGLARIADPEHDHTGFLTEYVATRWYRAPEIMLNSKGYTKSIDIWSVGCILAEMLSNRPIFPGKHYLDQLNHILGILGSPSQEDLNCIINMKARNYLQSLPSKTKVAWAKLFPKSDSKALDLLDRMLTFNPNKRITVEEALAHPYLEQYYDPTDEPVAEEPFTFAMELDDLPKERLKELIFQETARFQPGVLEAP
Sequence of Mitogen-activated protein kinase; ERK1/ERK2 (Homo sapiens) (P28482 whole entry, looked up): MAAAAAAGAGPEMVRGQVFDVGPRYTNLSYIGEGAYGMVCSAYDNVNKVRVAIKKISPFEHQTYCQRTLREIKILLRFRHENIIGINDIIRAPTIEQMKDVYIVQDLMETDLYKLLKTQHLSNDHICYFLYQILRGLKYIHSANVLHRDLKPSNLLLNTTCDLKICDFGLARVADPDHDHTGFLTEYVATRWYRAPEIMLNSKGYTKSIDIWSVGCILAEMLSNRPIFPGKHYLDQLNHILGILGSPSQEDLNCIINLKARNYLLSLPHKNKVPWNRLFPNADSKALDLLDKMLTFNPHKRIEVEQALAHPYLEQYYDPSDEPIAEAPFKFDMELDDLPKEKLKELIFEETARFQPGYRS

HFF [8] = test: Antiangiogenic activity in confluent HFF cells assessed as inhibition of cell migration at 20 uM incubated for 24 to 48 hrs by Hoechst 33342 staining based wound healing assay; assay type: functional; conditions: Homo sapiens, time 24-48 hrs
[9] = target: RAC-alpha serine/threonine-protein kinase (Homo sapiens) (UniProt P31749); test: Inhibition of AKT phosphorylation in serum starved VEGF stimulated HUVEC cells at 20 uM preincubated for 10 mins followed by VEGF addition and measured after 20 mins by Western blotting analysis; assay type: cell-based; conditions: time 30.0 min
HUVEC [10] = test: Antiangiogenic activity in confluent VEGF stimulated HUVEC cells assessed as relative cell migration rate at 20 uM incubated for 24 hrs by Hoechst 33342 staining based wound healing assay relative to control; assay type: functional, Homo sapiens
HUVEC [11] = test: Antiangiogenic activity in confluent VEGF stimulated HUVEC cells assessed as relative cell migration rate at 20 uM incubated for 48 hrs by Hoechst 33342 staining based wound healing assay relative to control; assay type: functional, Homo sapiens
HUVEC [12] = test: Antiangiogenic activity in confluent VEGF stimulated HUVEC cells assessed as inhibition of cell migration at 20 uM incubated for 48 hrs by Hoechst 33342 staining based wound healing assay; assay type: functional; conditions: Homo sapiens

inhibition [1]: 24.1%
SMILES: Cc1nc(Nc2ncc(C(=O)Nc3c(C)cccc3Cl)s2)cc(N2CCN(CCO)CC2)n1 [DASATINIB ANHYDROUS]
Activity (HUVEC [2]): inactive
Activity (HFF [3]): 27.31%
Activity (HFF [4]): 27.32%

inhibition [6]: inactive
Activity [7]: > 70%
inhibition [9]: inactive
SMILES: CCCCC(O)Cn1nc(Nc2ccc(Cl)cc2)c(C(=O)OCC)c1N (stereo not given)
growth at 10 µM (SK-MEL-28): 115%
growth at 10 µM (SK-OV-3): 132%
growth at 10 µM (MCF7): 145%
growth at 10 µM (A549): 130%
growth at 10 µM (SK-BR-3): 114%
growth at 10 µM (HeLa): 104%
growth at 10 µM (HepG2): 108%
growth at 10 µM (MDA-MB-231): 137%
Activity [5]: 93.96%
Activity (HFF [8]): Active
Activity (HUVEC [2]): inactive

Activity [7]: > 70%
SMILES: CCOC(=O)c1c(Nc2ccc(Cl)cc2)nn(CC(OC(=O)Nc2cccc(C(F)(F)F)c2)c2ccccc2)c1N (stereo not given)
growth at 10 µM (SK-MEL-28): 112%
growth at 10 µM (SK-OV-3): 122%
growth at 10 µM (MCF7): 128%
growth at 10 µM (A549): 89.2%
growth at 10 µM (SK-BR-3): 124%
growth at 10 µM (HeLa): 65.9%
growth at 10 µM (HepG2): 120%
growth at 10 µM (MDA-MB-231): 121%
Activity [5]: 131.1%
Activity (HFF [8]): inactive
Activity (HUVEC [10]): >50%
Activity (HUVEC [11]): >50%

inhibition [6]: Active
Activity [7]: > 70%
SMILES: CCCCC(O)Cn1nc(Nc2ccccc2Cl)c(C(=O)OCC)c1N (stereo not given)
growth at 10 µM (SK-MEL-28): 109%
growth at 10 µM (SK-OV-3): 125%
growth at 10 µM (MCF7): 140%
growth at 10 µM (A549): 138%
growth at 10 µM (SK-BR-3): 103%
growth at 10 µM (HeLa): 104%
growth at 10 µM (HepG2): 102%
growth at 10 µM (MDA-MB-231): 126%
Activity [5]: 92.72%
Activity (HFF [8]): Active
Activity (HUVEC [10]): 47.74%
Activity (HUVEC [12]): inactive
